Reference: patent publication US9034859B2, “Sulfated oxysterol and oxysterol sulfation by hydroxysterol sulfotransferase promote lipid homeostasis and liver proliferation” (Virginia Commonwealth University, priority 2011, dated 2015)
Values joined by “and” are separate entries in the source; they are usually repeats but may differ in a detail not shown here. Equal values may be shown once.

Assays:
[1] = Quantification of hepatic lipids and liver morphology, long-term treatment; assay type: in vivo, C57BL/6J female mice; settings: HFD mice
Method: (§1) Animal studies were approved by Institutional Animal Care and Use Committee of McGuire Veterans Affairs Medical Center and were conducted in accordance with the Declaration of Helsinki, the Guide for the Care and Use of Laboratory Animals, and all applicable regulations. To examine the effect of 25HC3S on diet-induced lipid accumulation in sera and liver, 8-week-old female C57BL/6J mice (Charles River, Wilmington, Mass.) were randomly assigned to three groups: the first control group was fed a chow diet; the high fat diet (HFD) group was fed a HFD (Harlan Teklad, Madison, Wis.) containing 42% kcal from fat, 43% kcal from carbohydrate, 15% kcal from protein and 0.2% cholesterol; and the high cholesterol diet (HCD) group was fed a 2% cholesterol diet with 18% kcal from fat, 58% kcal from carbohydrate and 24% kcal from protein for 10 weeks, respectively. All mice were housed under identical conditions in an aseptic facility and given free access to water and food. At the end of each period, the mice were intraperitoneally injected with vehicle solution (ethanol/PBS; Vehicle), 25HC (25 mg/kg), or 25HC3S (25 mg/kg) for 2 times and fasted over night for acute treatment (n=15-17 for each group) or once every three days for 6 weeks (n=16 for each group) and fasted 5 hrs for long-term treatment; and blood samples were collected. Serum triglyceride, total cholesterol, high density lipoprotein-cholesterol, glucose, alkaline phosphatase (ALK), alanine aminotransferase (ALT), and aspartate aminotransferase (AST) were measured using standard enzymatic techniques in the clinical laboratory at McGuire Veterans Affairs Medical Center. Lipoprotein profiles in sera were analyzed by HPLC as following described.
For each mouse, three specimens from different regions of the liver were collected and fixed in 4% paraformaldehyde in 0.1 M phosphate buffer at room temperature overnight. The regions of the specimens were standardized for all mice. The paraffin-embedded tissue sections (4 μm) were stained with hematoxylin and eosin.
Liver tissues were homogenized, and lipids were extracted with a mixture of chloroform and methanol (2:1), and filtered. The extracts, 0.2 ml, were evaporated to dryness and dissolved in 100 μl of isopropanol containing 10% of triton X-100 for cholesterol assay (Wako Chemicals USA, Richmond, Va.), the NEFA solution (0.5 g of EDTA-Na2, 2 g of Triton X-100, 0.76 ml of 1N NaOH, and 0.5 g of sodium azide/1, pH 6.5) for free fatty acid assay (Wako Chemicals USA, Richmond, Va.), or isopropanol only for triglyceride assay (Fisher Scientific, Pittsburgh, Pa.). All of the assays were performed according to the manufacturer's instructions, respectively. Each lipid concentration was normalized to liver weight.

[2] = test system: lipogenic gene expression; assay: Relative hepatic mRNA expression by real-time RT-PCR, long-term treatment; assay type: in vivo, C57BL/6J female mice; settings: liver, HFD mice
Method: as §1
Total RNA was isolated with SV Total RNA Isolation Kit (Promega, Madison, Wis.), which included DNase treatment. Total RNA, 2 μg, was used for the first-strand cDNA synthesis as recommended by the manufacturer (Invitrogen, Carlsbad, Calif.). Real-time RT-PCR was performed using SYBR Green as indicator on ABI 7500 Fast Real-Time PCR System (Applied Biosystems, Foster City, Calif.). All primer/probe sets for real-time PCR were TaqMan gene expression assays (Applied Biosystems, Foster City, Calif.). Amplifications of β-actin and GAPDH were used as internal controls. Relative messenger RNA (mRNA) expression was quantified with the comparative cycle threshold (Ct) method and was expressed as 2^−ΔΔCt. Suitable primers were utilized.

[3] = test system: apoptotic and cell cycle related genes; assay: Mouse Cell cycle RT2 Profiler PCR Array of liver tissues; assay type: in vivo, C57BL/6 mice; settings: 5 mg/kg, versus vehicle
Method: The real-time PCR array was performed using the Mouse Cell cycle RT2 Profiler™ PCR Array consisting of 84 key genes involved in apoptosis and proliferation as the manufacturer's instruction (SABiosciences, Frederick, Md.). Total mRNA was reverse-transcribed to cDNA as described above. Three of biologically-distinct specimens were pooled to reduce variance. The cDNA was then amplified precisely like real-time PCR in the primers-preloaded PCR plates on the ABI 7500 Fast Real-Time PCR System. ΔΔCT values between different stimulated samples were analyzed as the manufacturer's instruction, which output p-values for fold-regulation change.

PCNA = PCNA labeling index in liver histology; assay type: in vivo, C57BL/6 mice; settings: liver specimen of 25HC3S treated mice (5 mg/kg, 48 h)
Method: Metabolism. (Accepted)]. […] Antigen retrieval was performed by microwaving of the sections in citrate buffer (PH 6.0) for 10 min. Sections were incubated overnight at […] with the primary monoclonal antibody against proliferating cell nuclear antigen (PCNA) (ab29, Abcam, Cambridge, Mass.). After washing with PBS, immobilized antibodies were detected by the avidin-biotin-peroxidase complex technique (Vectastain@ ABC Kit, Vector Laboratories, Burlingame, Calif.). DAB (Vector Laboratories, Burlingame, Calif.) and haematoxylin (Sigma-Aldrich, St. Louis, Mo.) was used as the chromogen and nuclear counterstain, respectively. […] The quantitation of PCNA expression was expressed as the PCNA labeling index.

[4] = once every three days for 6 weeks, mean ± SD, n=5-6

CC(CCCC(C)(C)O)C1CCC2C3CC=C4CC(OS(=O)(=O)O)CCC4(C)C3CCC12C (stereo not drawn) [25HC3S, 25-hydroxycholesterol-3-sulfate]
hepatic cholesterol ester concentration [1]: not affected
lipid inclusions in liver (H&E morphology) [1]: significantly decreased
reduction of hepatic free cholesterol ([1]; normalized by liver weight): 28%
reduction of hepatic free fatty acid ([1]; normalized by liver weight): 23%
reduction of hepatic total cholesterol ([1]; normalized by liver weight): 15%
reduction of hepatic triglyceride ([1]; normalized by liver weight): 30%
decrease of ACC1 mRNA level ([2]; long-term treatment): 41%
decrease of CD36 mRNA ([2]; long-term treatment): 49%
decrease of FAS mRNA level ([2]; long-term treatment): 24%
decrease of GPAM mRNA ([2]; long-term treatment): 19%
decrease of SREBP-1c mRNA level ([2]; long-term treatment): 23%
suppression of IL1α expression ([2]; long-term treatment): 53%
suppression of IL1β expression ([2]; long-term treatment): 58%
suppression of TNFα expression ([2]; long-term treatment): 47%
ABCA1 relative hepatic mRNA [2, 4]: 0.80 ± 0.12
ABCG1 relative hepatic mRNA [2, 4]: 0.72 ± 0.19
ACC1 relative hepatic mRNA [2, 4]: 0.63 ± 0.08
CD36 relative hepatic mRNA [2, 4]: 0.47 ± 0.08
FAS relative hepatic mRNA [2, 4]: 0.73 ± 0.16
GPAM relative hepatic mRNA [2, 4]: 0.81 ± 0.10
IL1α relative hepatic mRNA [2, 4]: 0.54 ± 0.14
IL1β relative hepatic mRNA [2, 4]: 0.58 ± 0.27
IκBα relative hepatic mRNA [2, 4]: 1.48 ± 0.38
LDLR relative hepatic mRNA [2, 4]: 0.79 ± 0.13
LXRα relative hepatic mRNA [2, 4]: 0.95 ± 0.24
MTTP relative hepatic mRNA [2, 4]: 0.78 ± 0.09
NFκB relative hepatic mRNA [2, 4]: 0.86 ± 0.22
PLTP relative hepatic mRNA [2, 4]: 0.60 ± 0.11
SRB1 relative hepatic mRNA [2, 4]: 0.87 ± 0.20
SREBP-1c relative hepatic mRNA [2, 4]: 0.76 ± 0.08
TNFα relative hepatic mRNA [2, 4]: 0.60 ± 0.34
decrease of Apaf1 expression ([3]; 48 h): 3 fold
decrease of Chek2 expression ([3]; 48 h): 4.5 fold
Fold change Apaf1(NM_009684) ([3]; 2 days, pooled mRNA): −3.21 fold
Fold change Atr(NM_019864) ([3]; 2 days, pooled mRNA): −2.15 fold
Fold change Bag1(NM_009736) ([3]; 2 days, pooled mRNA): 2.0488 fold
Fold change Bnip3(NM_009760) ([3]; 2 days, pooled mRNA): 2.0112 fold
Fold change Brca1(NM_009764) ([3]; 2 days, pooled mRNA): −1.87 fold
Fold change Ccnb2(NM_007630) Cyclin B2 ([3]; 2 days, pooled mRNA): 1.90 fold
Fold change Ccne2(NM_009830) Cyclin E2 ([3]; 2 days, pooled mRNA): 2.52 fold
Fold change Cdc25a(NM_007658) ([3]; 2 days, pooled mRNA): 1.53 fold
Fold change Cdc25c(NM_009860) ([3]; 2 days, pooled mRNA): 1.56 fold
Fold change Cdkn1a(NM_007669) ([3]; 2 days, pooled mRNA): 3.0411 fold
Fold change Chek2(NM_016681) ([3]; 2 days, pooled mRNA): −4.65 fold
Fold change E2f3(NM_010093) ([3]; 2 days, pooled mRNA): 2.0193 fold
Fold change Ep300(NM_177821) ([3]; 2 days, pooled mRNA): 1.8114 fold
Fold change Esr1(NM_007956) ([3]; 2 days, pooled mRNA): 2.2535 fold
Fold change Gadd45a(NM_007836) ([3]; 2 days, pooled mRNA): −1.59 fold
Fold change Hif1a(NM_031168) ([3]; 2 days, pooled mRNA): 1.7576 fold
Fold change Mdm2(NM_010786) ([3]; 2 days, pooled mRNA): 1.6222 fold
Fold change Myod1(NM_010866) ([3]; 2 days, pooled mRNA): 1.56 fold
Fold change Nf1(NM_010897) ([3]; 2 days, pooled mRNA): 2.10 fold
Fold change Pcna(NM_011045) ([3]; 2 days, pooled mRNA): 3.7 fold and 3.77 fold
Fold change Prkca(NM_011101) ([3]; 2 days, pooled mRNA): 2.29 fold
Fold change Tnf(NM_013693) ([3]; 2 days, pooled mRNA): −2.76 fold
Fold change Tnfrsf10b(NM_020275) ([3]; 2 days, pooled mRNA): −2.28 fold
Fold change Trp73(NM_011642) ([3]; 2 days, pooled mRNA): 2.5194 fold
Fold change Wt1(NM_144783) ([3]; 2 days, pooled mRNA): 3.9 fold and 3.90 fold
Fold change Xrcc5(NM_009533) ([3]; 2 days, pooled mRNA): −1.90 fold
PCNA labeling index (PCNA): 12%
